From paper PMC5291303 (Science translational medicine, 2016)

Experiments:
[1] = test system: microtubule polymer mass in H1299 cells; assay: Microtubule sedimentation assay; type: cell-based; conditions: 4 hours, increasing concentrations
[2] = test system: caudal, digital and tibial nerves; dorsal root ganglia, sciatic nerve; assay: Peripheral neuropathy study; type: in vivo, Sprague-Dawley rats; conditions: for Caudal and digital NCV / Tibial nerve onset latency / Caudal and digital NCV after recovery / Histology of dorsal root ganglia and sciatic nerve: at MTD (DZ-2384 30 mg/m^2, docetaxel 120 mg/m^2)
[3] = test system: human pancreatic cancer PDX; assay: Pancreatic cancer patient-derived xenograft; type: in vivo, SCID/beige mice; conditions: for Effect on tumor growth: gemcitabine 100 mg/m^2, DZ-2384 36 mg/m^2, alone or combined
[4] = test system: MDA-MB-231-LM2 breast cancer metastases; assay: MDA-MB-231-LM2 experimental lung metastasis model; type: in vivo, SCID/beige mice; conditions: for Tumor-free animals: up to 106 days after initial treatment
[5] = test system: U-2 OS osteosarcoma cells; assay: Interphase microtubule immunostaining in U-2 OS cells; type: cell-based; conditions: unsynchronized, IC80 (300 nM each), 2 hours
[6] = Toxicity studies to determine NOAEL; type: in vivo, mice; conditions: plasma AUC at NOAEL vs at MED
Pharmacokinetics in rats = type: in vivo, Sprague-Dawley rats; conditions: rat; 12 mg/m^2
[7] = test system: RS4;11 model of adult Philadelphia chromosome–negative ALL; assay: RS4; type: in vivo, mice; conditions: P = 0.0028 tumor cells; P = 0.0024 survival
[8] = test system: Rgs16∷GFP;KIC pancreatic model; assay: Rgs16::GFP; type: in vivo, mice
purified tubulin [9] = assay: Reconstituted single molecule assay for microtubule dynamics; type: biochemical; conditions: for Growth and shrinkage rates: 100 nM DZ-2384
[10] = test system: U-2 osteosarcoma (OS) cells; assay: 3-day viability assay, U-2 OS; type: cell-based
[11] = test system: primary rat cortical neurons; assay: Axonal microtubule immunostaining in primary neurons; type: cell-based; conditions: 1 hour; 0.3 to 100 nM; DZ-2384 up to 100 nM, vinorelbine starting at 0.3 nM
[12] = test system: MIA PaCa-2 model of pancreatic ductal adenocarcinoma; assay: MIA PaCa-2 subcutaneous xenograft efficacy; type: in vivo, mice
[13] = Plasma exposure by LC-MS/MS at MED and NOAEL doses
HeLa cells = assay: 3-day cell viability assay, HeLa; type: cell-based
[14] = test system: microtubules in LLC-PK1 cells expressing GFP–α-tubulin; assay: Microtubule dynamic instability in live cells; type: cell-based; conditions: IC80: 24 nM DZ-2384, 11 nM vinorelbine; mean ± SD
[15] = test system: E18 rat primary cortical neurons; assay: IC50 in primary cortical neurons; type: cell-based
H1299 cells [16] = assay: DNA content and caspase-3 activation in H1299 cells; type: cell-based
[17] = test system: U-2 OS cells stably expressing an EB3-mCherry fusion protein; assay: Growing microtubule ends in EB3-mCherry U-2 OS cells; type: cell-based; conditions: equipotent (IC80) concentrations
[18] = all doses tested, each xenograft model
purified tubulin [19] = assay: Electron microscopy of tubulin oligomer curvature; type: biochemical; conditions: 10 μM; compared with vinblastine
tubulin [20] = assay: Surface plasmon resonance binding and competition; conditions: tubulin (3 μM) preincubated with competitor
H1299 cells [21] = assay: Growth inhibition of H1299 cells; type: cell-based
tubulin [22] = conditions: cited from earlier work
in vivo = conditions: mouse
[23] = relative to untreated microtubules

## CC(=O)O[C@@]12CO[C@@H]1C[C@H](O)[C@@]1(C)C(=O)[C@H](O)C3=C(C)[C@@H](OC(=O)[C@H](O)[C@@H](NC(=O)OC(C)(C)C)c4ccccc4)C[C@@](O)([C@@H](OC(=O)c4ccccc4)[C@H]21)C3(C)C [docetaxel, reference compound]
[1]
  Microtubule polymer mass: increased microtubule polymer mass
[2]; day 24
  Caudal and digital NCV: decrease in NCV in caudal and digital nerves
  Tibial nerve onset latency: increase in onset latency in tibial nerves
[2]; day 44
  Caudal and digital NCV after recovery: no improvement in either caudal or digital NCV
  Histology of dorsal root ganglia and sciatic nerve: incomplete recovery of the damaged dorsal root ganglia

## CC(C)[C@H](O)C(=O)N[C@H]1Cc2ccc3c(c2)[C@]2(C4=C(c5nc(CO)co5)N=C(O4)[C@H](C(C)(C)C)NC1=O)c1cc(F)ccc1N[C@@H]2O3 [DZ-2384]
[3]; day 29
  Deaths: One animal inexplicably died
[3]
  Effect on tumor growth: insignificant effects on tumor growth
[3]; then quickly recovered
  Body weight loss after the first dose: 11%
[4]; 4.5 mg/m^2
  Tumor-free animals: 1 of 5
[4]; 18 mg/m^2
  Tumor-free animals: 2 of 8
[4]; all treated groups, P < 0.0001 vs vehicle
  Survival: significantly increased the survival
[4]; starting at the lowest dose tested
  Effect on lung metastases: regression of all lung metastases
[5]
  Interphase microtubule network: microtubules were present
[6]
  Safety margin (range over MIA PaCa-2 and HT-29 models): 24.4 to 53.5
Pharmacokinetics in rats
  AUC: 4371 ng·h/mL
[7]
  Dose reducing circulating tumor cells (day 23) and increasing survival: ≤ 0.7 mg/m^2
[8]; administered on P23 (no mortality)
  Tolerability of 30 mg/m^2: tolerated
Purified tubulin [9]; [23]
  Growth and shrinkage rates: decreased by about twofold
  Catastrophe frequencies: slightly increased
Purified tubulin [9]; P = 0.0236 at 50 nM
  Rescue frequency: twice the rate seen with vinorelbine
[10]; U-2 OS, 3-day
  IC80: 300 nM
[11]
  Axonal morphology, width and tubulin staining: minimal qualitative differences
[12]; 9 mg/m^2, ~3 months after treatment
  Tumor-free animals: all mice were tumor-free
[12]; 4 weekly bolus i.v. administrations
  Tumor response: complete tumor regression
[13]; mouse plasma AUC at the MED of the HT-29 model
  MED Exposure [AUC0-α]: 344 ng·h/mL
[13]; mouse plasma AUC at the MED of the MIA PaCa-2 model
  MED Exposure [AUC0-α]: 157 ng·h/mL
[13]; mouse plasma AUC at the NOAEL dose
  NOAEL Exposure [AUC0-α]: 8398 ng·h/mL
HeLa cells; 3-day cell viability assay
  IC80: 4 nM
[14]
  %Time per phase Growth: 42.1 ± 13.1 (0.9109) %
  %Time per phase Pause: 32.7 ± 12.1 (0.7422) %
  %Time per phase Shrink: 25.2 ± 1.4 (0.3079) %
  Dynamicity: 10.4 ±1.4 (0.0335) μm/min
  Growth Distance: 2.4 ± 0.3 (0.0631) μm
  Growth Duration: 19.0 ± 6.2 (0.2666) s
  Growth Rate: 8.3 ±1.6 (0.0164) μm/min
  Shrink Distance: 4.7 ± 0.9 (0.3899) μm
  Shrink Duration: 10.6 ± 1.3 (0.6087) s
  Shrink Rate: 27.7 ± 2.2 (0.6081) μm/min
[15]
  IC50: 43 nM
H1299 cells [16]
  Start of accumulation in G2-M phase: 4 to 8 h
H1299 cells [16]; after treatment
  Start of apoptosis (procaspase-3 cleavage): 16 h
[1]
  Microtubule polymer mass: decrease in microtubule polymer mass
[17]
  Number of growing microtubules: decreased the number of growing microtubules
[18]
  Body weight loss: less than 10%
[2]; day 24, 12 mg/m^2, vs age-matched controls
  NCV and onset latency: normal NCV and onset latency
[2]; day 24
  Caudal and digital NCV: slowing of the caudal and distal digital NCV
  Tibial nerve onset latency: the tibial nerve was unaffected
[2]; day 44, 12 mg/m^2
  Histology of lumbar dorsal root ganglia and sciatic nerve: no changes
[2]; day 44
  Caudal and digital NCV after recovery: remained slow
  Histology of dorsal root ganglia and sciatic nerve: did not find histological evidence of neurotoxicity
Purified tubulin [19]
  Protofilament curvature (κ): straighter
Tubulin [20]
  Competition of tubulin binding to biotinylated DZ-2384 surfaces: inhibited its binding
H1299 cells [21]; H1299 cells
  IC50: 12 nM

## CCC1=C[C@@H]2CN(C1)Cc1c([nH]c3ccccc13)[C@@](C(=O)OC)(c1cc3c(cc1OC)N(C)[C@H]1[C@@](O)(C(=O)OC)[C@H](OC(C)=O)[C@]4(CC)C=CCN5CC[C@]31[C@@H]54)C2 [Vinorelbine, vinorelbine, reference compound]
[5]
  Interphase microtubule network: intact microtubules were difficult to observe
[6]
  Safety margin (range over MIA PaCa-2 and HT-29 models): 0.7 to 1.0
Tubulin [22]
  Affinity compared to vinblastine: lower affinity
Purified tubulin [9]; [23]
  Growth and shrinkage rates: Comparable growth and shrinkage rate decreases
[10]; Homo sapiens, U2OS, 72 h
  IC80: 300 nM
[11]
  Axonal morphology, width and tubulin staining: thinner and/or fragmented axons
[13]; mouse, in vivo, 30 mg/m^2
  AUC: 2310 ng·h/mL
HeLa cells; Homo sapiens, 72 h
  IC80: 11 nM
[14]
  %Time per phase Growth: 13.1 ± 7.3 (0.0074) %
  %Time per phase Pause: 48.4 ± 8.1 (0.0141) %
  %Time per phase Shrink: 38.6 ± 8.6 (0.1068) %
  Dynamicity: 10.2 ±1.3 (0.0165) μm/min
  Growth Distance: 2.1 ± 0.2 (0.0036) μm
  Growth Duration: 17.5 ± 5.8 (0.4242) s
  Shrink Distance: 6.4 ± 1.4 (0.2345) μm
  Shrink Duration: 17.6 ± 6.6 (0.1570) s
  Shrink Rate: 24.6 ± 3.5 (0.1242) μm/min
In vivo
  AUC: 3380 ng·h/mL
[1]
  Microtubule polymer mass: like with vinorelbine
[17]
  Number of growing microtubules: vastly decreasing the number of growing microtubules
[18]
  Body weight loss: less than 10%
Tubulin [20]
  Competition of tubulin binding to biotinylated DZ-2384 surfaces: blocked its binding
H1299 cells [21]; Homo sapiens, NCI-H1299
  IC50: 15 nM

## Nc1ccn([C@@H]2O[C@H](CO)[C@@H](O)C2(F)F)c(=O)n1 [gemcitabine, reference compound]
[3]
  Effect on tumor growth: insignificant effects on tumor growth
[8]; weanling mice
  Clinical observations: not with gemcitabine alone
